Measured values as given in US11098026B2, “Fused bicyclic compounds, compositions and applications thereof” (IMPETIS BIOSCIENCES LIMITED, priority 2017, dated 2021).

The compounds below were run against T1, human GPR91 receptor (Homo sapiens, UniProt Q9BXA5) (assay: Human GPR91 calcium mobilization assay). Settings: CHO-K1 NFAT cells over expressing human GPR91 receptor; Fluo4 AM; agonist sodium succinate; flex station; read-out: hGPR91 IC50 (μM)*.
T1 construct: expressed in transfected cells; host or cells: CHO-K1 NFAT cells
T1 sequence (Q9BXA5 1-334): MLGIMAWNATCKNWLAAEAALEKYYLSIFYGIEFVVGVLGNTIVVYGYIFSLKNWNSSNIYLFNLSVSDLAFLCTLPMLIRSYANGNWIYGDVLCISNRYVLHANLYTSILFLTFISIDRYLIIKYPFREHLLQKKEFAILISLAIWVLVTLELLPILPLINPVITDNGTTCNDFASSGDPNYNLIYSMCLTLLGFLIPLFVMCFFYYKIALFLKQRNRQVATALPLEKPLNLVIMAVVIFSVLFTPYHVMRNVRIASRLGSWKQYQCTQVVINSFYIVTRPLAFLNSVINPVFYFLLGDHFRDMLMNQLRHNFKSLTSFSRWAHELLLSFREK
Format: cell-based
Method: Human GPR91 Calcium Mobilization Assay
To determine IC50 in CHO NFAT cells over expressing human GPR91 receptor calcium mobilization assay in flex station mode was carried out.
Grow CHO-K1 NFAT cells over expressing human GPR91 receptors in alpha MEM media were supplemented with 10% FBS (heat inactivated), 0.5 mg/ml of G-418, 0.5 mg/ml of Zeocin and 0.6 mg/ml of Hygromycin B.
The cells were seeded at least 21 hours before the experiment at the density of 25000/well in 96 well plate (Corning cat #no. 3603). It was made sure that cells were at least 95% confluent on the day of assay. No antibiotics were used for seeding purpose.
On the day of assay the media was discarded from plates and plates were washed with 100 μl of HBSS assay buffer. The plates were loaded with Fluo4 AM at 2 μM concentration. Pluronic F-127 dye was solubilized in calcium assay buffer containing 0.1% BSA, i.e., 20 μl dye+20 μl Pluronic F127 for 10 ml. Appropriate amounts of 100× probenecid was added to the loading mixture 1× final (100 μl per 10 ml). Total volume of dye loaded was made 100 μl. The plate was then wrapped in aluminium foil to protect from light and were incubated for 90 mins at 37 degrees in cell culture incubator. At the end of incubation the plates was washed again with 100 μl of HBSS buffer without BSA and 75 μl of HBSS buffer was added (without BSA) to the plate.
Further, 8 point-Dose response curve of the compounds of the present disclosure was prepared in 100% DMSO followed by 57.14-fold dilution to 1.75× in 1.75% DMSO in assay buffer. 100 μL of 1.75×NCE was added to the wells as shown below and incubated at room temp on orbital shaker at 300 rpm for 15 min. Flexstation [excitation @ 485 nm and emission @ 525 nm] for a total time of 60 seconds. 25 μL of 8× agonist (800 μM sodium succinate) was added to each well using the flexstation after establishing the baseline for 20 sec, Measurement—Max-Min over 60 sec. Using the above protocol results obtained are tabulate din the Table 1 below: […]

SMILES | IC50 [µM]
O=C(O)Cc1cccc(Oc2ccc(Oc3cccc4ccncc34)cc2C(F)(F)F)c1 [Compound A-1, 2-[3-[4-(8-isoquinolyloxy)-2-(trifluoromethyl)phenoxy]phenyl]acetic acid] | < 5
O=C(O)CCc1ccc(Oc2ccc(Oc3cccc4ccncc34)cc2C(F)(F)F)cc1 [Compound A-34, 3-[4-[4-(8-isoquinolyloxy)-2-(trifluoromethyl)phenoxy]phenyl]propanoic acid] | < 5
Cn1cc2cc(Oc3ccc(Oc4cccc(CCC(=O)O)c4)c(C(F)(F)F)c3)ccc2n1 [Compound A-35, 3-[3-[4-(2-methylindazol-5-yl)oxy-2-(trifluoromethyl)phenoxy]phenyl]propanoic acid] | < 5
O=C(O)Cc1cccc(Oc2ccc(Oc3cnc4ncn(C5COC5)c4c3)cc2C(F)(F)F)c1 [Compound A-29, 2-[3-[4-[1-(oxetan-3-yl)imidazo[4,5-b]pyridin-6-yl]oxy-2-(trifluoromethyl)phenoxy]phenyl]acetic acid] | > 10
O=C(O)Cc1cccc(Oc2ccc(Oc3ccc4c(ccn4CC(=O)O)c3)cc2C(F)(F)F)c1 [Compound A-32, 2-[3-[4-[1-(carboxymethyl)indol-5-yl]oxy-2-(trifluoromethyl)phenoxy]phenyl]acetic acid] | > 10
NC(=O)Cc1cccc(Oc2ccc(Oc3cccc4ccncc34)cc2C(F)(F)F)c1 [Compound C-3, 2-[3-[4-(8-isoquinolyloxy)-2-(trifluoromethyl)phenoxy]phenyl]acetamide] | < 5
O=C(O)CCc1cccc(Oc2ccc(Oc3cccc4ccncc34)cc2C(F)(F)F)c1 [Compound A-42, 3-[3-[4-(8-isoquinolyloxy)-2-(trifluoromethyl)phenoxy]phenyl]propanoic acid] | < 5
O=C(O)Cc1cccc(Oc2ccc(Oc3cccc4cnncc34)cc2C(F)(F)F)c1 [Compound A-2, 2-[3-[4-phthalazin-5-yloxy-2-(trifluoromethyl)phenoxy]phenyl]acetic acid] | < 5
O=C(O)Cc1cccc(Oc2ccc(Oc3ccc4c(cnn4C4COC4)c3)cc2C(F)(F)F)c1 [Compound A-23, 2-[3-[4-[1-(oxetan-3-yl)indazol-5-yl]oxy-2-(trifluoromethyl)phenoxy]phenyl]acetic acid] | > 10
O=C(O)Cc1cccc(Oc2ccc(Oc3ccc4cnn(C5COC5)c4c3)cc2C(F)(F)F)c1 [Compound A-21, 2-[3-[4-[1-(oxetan-3-yl)indazol-6-yl]oxy-2-(trifluoromethyl)phenoxy]phenyl]acetic acid] | < 5
O=C(O)Cc1cccc(Oc2ccc(Oc3cccc4[nH]ncc34)cc2C(F)(F)F)c1 [Compound A-48, 2-[3-[4-(1H-indazol-4-yloxy)-2-(trifluoromethyl)phenoxy]phenyl]acetic acid] | < 5
O=C(O)Cc1cccc(Oc2ccc(Oc3ccc4[nH]nc(C(=O)O)c4c3)cc2C(F)(F)F)c1 [Compound A-47, 5-[4-[3-(carboxymethyl)phenoxy]-3-(trifluoromethyl)phenoxy]-1H-indazole-3-carboxylic acid] | < 5
O=C(O)Cc1cccc(Oc2ccc(Oc3ccc4ccn(CC(=O)O)c4c3)cc2C(F)(F)F)c1 [Compound A-33, 2-[3-[4-[1-(carboxymethyl)indol-6-yl]oxy-2-(trifluoromethyl)phenoxy]phenyl]acetic acid] | < 5
O=C(O)CCc1cccc(Oc2ccc(Oc3cccc4cnncc34)cc2C(F)(F)F)c1 [Compound A-3, 3-[3-[4-phthalazin-5-yloxy-2-(trifluoromethyl)phenoxy]phenyl]propanoic acid] | < 5
O=C(O)CCc1cccc(Oc2ccc(Oc3cccc4cccnc34)cc2C(F)(F)F)c1 [Compound A-12, 3-[3-[4-(8-quinolyloxy)-2-(trifluoromethyl)phenoxy]phenyl]propanoic acid] | > 10
O=C(O)Cc1cccc(Oc2ccc(Oc3ccc4cnc(C5COC5)n4c3)cc2C(F)(F)F)c1 [Compound B-5, 2-[3-[4-[3-(oxetan-3-yl)imidazo[1,5-a]pyridin-6-yl]oxy-2-(trifluoromethyl)phenoxy]phenyl]acetic acid] | 5 to 10
FC(F)(F)c1cc(Oc2cccc3ccncc23)ccc1Oc1cccc(CCc2nnn[nH]2)c1 [Compound D-2, 8-[4-[3-[2-(1H-tetrazol-5-yl)ethyl]phenoxy]-3-(trifluoromethyl)phenoxy]isoquinoline] | 5 to 10
O=C(O)Cc1cccc(Oc2ccc(Oc3ccc4cn(C5COC5)nc4c3)cc2C(F)(F)F)c1 [Compound A-22, 2-[3-[4-[2-(oxetan-3-yl)indazol-6-yl]oxy-2-(trifluoromethyl)phenoxy]phenyl]acetic acid] | < 5
O=C(O)Cc1cccc(Oc2ccc(Oc3cccc4ncncc34)cc2C(F)(F)F)c1 [Compound A-9, 2-[3-[4-quinazolin-5-yloxy-2-(trifluoromethyl)phenoxy]phenyl]acetic acid] | < 5
O=C(O)Cc1cccc(Oc2ccc(Oc3ccc4ncn(C5COC5)c4c3)cc2C(F)(F)F)c1 [Compound A-26, 2-[3-[4-[3-(oxetan-3-yl)benzimidazol-5-yl]oxy-2-(trifluoromethyl)phenoxy]phenyl]acetic acid] | < 5
O=C(O)Cc1cccc(Oc2ccc(Oc3ccn4cnnc4c3)cc2C(F)(F)F)c1 [Compound A-19, 2-[3-[4-([1,2,4]triazolo[4,3-a]pyridin-7-yloxy)-2-(trifluoromethyl)phenoxy]phenyl]acetic acid] | > 10
O=C(O)Cc1cccc(Oc2ccc(Oc3cccn4cncc34)cc2C(F)(F)F)c1 [Compound B-2, 2-[3-[4-imidazo[1,5-a]pyridin-8-yloxy-2-(trifluoromethyl)phenoxy]phenyl]acetic acid] | < 5
O=C(O)Cc1cccc(Oc2ccc(Oc3ccc4c(c3)NCCO4)cc2C(F)(F)F)c1 [Compound A-18, 2-[3-[4-(3,4-dihydro-2H-1,4-benzoxazin-6-yloxy)-2-(trifluoromethyl)phenoxy]phenyl]acetic acid] | < 5
O=C(O)Cc1cccc(Oc2ccc(Oc3cccc4ccncc34)c(C(F)(F)F)c2)c1 [Compound E-1, 2-[3-[4-(8-isoquinolyloxy)-3-(trifluoromethyl)phenoxy]phenyl]acetic acid] | > 10
Cn1ncc2c(Oc3ccc(Oc4cccc(CC(=O)O)c4)c(C(F)(F)F)c3)cccc21 [Compound A-16, 2-[3-[4-(1-methylindazol-4-yl)oxy-2-(trifluoromethyl)phenoxy]phenyl]acetic acid] | < 5
N#Cc1n[nH]c2ccc(Oc3ccc(Oc4cccc(CC(=O)O)c4)c(C(F)(F)F)c3)cc12 [Compound A-46, 2-[3-[4-[(3-cyano-1H-indazol-5-yl)oxy]-2-(trifluoromethyl)phenoxy]phenyl]acetic acid] | < 5
O=C(O)Cc1cccc(Oc2ccc(Oc3ccc(F)c4ccncc34)cc2C(F)(F)F)c1 [Compound A-8, 2-[3-[4-[(5-fluoro-8-isoquinolyl)oxy]-2-(trifluoromethyl)phenoxy]phenyl]acetic acid] | < 5
Cn1ncc2cccc(Oc3ccc(Oc4cccc(CC(=O)O)c4)c(C(F)(F)F)c3)c21 [Compound A-5, 2-[3-[4-(1-methylindazol-7-yl)oxy-2-(trifluoromethyl)phenoxy]phenyl]acetic acid] | < 5
